According to patent US8134012B2 (priority 2005, dated 2012):
Like-named read-outs stand apart in the source and are kept apart here.

Key:
[1] = system: Alternaria mali; conditions: active compound concentration 1 ppm; 3 days incubation in PDB; single active compound
[2] = system: Pyricularia oryzae; type: cell-based

Row | SMILES | Efficacy in % found [1] [%] | Efficacy in % found [2] [%] | Efficacy in % found ([2]; active compound concentration 0.03 ppm, 4 days incubation in PDB, single active compound) [%]
1 | CC(C)Oc1cccc(NC(=O)c2ccccc2C(F)(F)F)c1 [(3) flutolanil, flutolanil] | 12 | – | –
2 | COP(=S)(OC)Oc1c(Cl)cc(C)cc1Cl [(2) tolclofos-methyl, tolclofos-methyl] | – | 13 | –
3 | Cc1nn(C)c(F)c1C(=O)Nc1ccccc1C(C)CC(C)C (stereo not shown) [(1-2), N-[2-(1,3-dimethylbutyl)phenyl]-5-fluoro-1,3-dimethyl-1H-pyrazole-4-carboxamide] | 83 | – | 20
